Results: paper PMC4706877, “Antibacterial and Cytotoxic Activity of Compounds Isolated from Flourensia oolepis” (Evidence-based Complementary and Alternative Medicine : eCAM, 2015)
In brackets after ≈: the same amount, converted by molar mass. Where a name gives a salt, the structure may show the parent alone. Read-outs that look alike come from different tables or passages of the source. Values belong to the molecule of their own block, whether it stands above or below them.

Experiments:
[1] = test system: Enterococcus faecalis (ATCC 29212); assay: Agar dilution MIC / MBC; format: cell-based; conditions: ATCC29212, E. faecalis; for MIC: agar dilution, 24 h; for MBC: value in parentheses
Experimental: (§1) This isolate was identified by conventional biochemical assays and by the commercial system API20E (bioMérieux SA, Mercy L'Etoile, France). Antimicrobial resistances were determined by disk diffusion susceptibility testing (Kirby-Bauer Method) according to CLSI [15]. Bacterial suspensions were prepared on sterile saline from each organism grown overnight. Turbidity was spectrophotometrically adjusted to the McFarland 0.5 standard. Dilutions were carried out with sterile saline to give an adjusted concentration of 1.5 × 10^7 colony-forming units/mL.
(§2) Three independent experiments were carried out. […] For reading, visual observations were carried out.

[2] = test system: Escherichia coli (ATCC 25922); assay: Agar dilution MIC / MBC; format: cell-based; conditions: ATCC25922, E. coli; for MIC: agar dilution, 24 h; for MBC: value in parentheses
Experimental: as §1, §2

[3] = test system: Pseudomonas aeruginosa (ATCC 27853); assay: Agar dilution MIC / MBC; format: cell-based; conditions: ATCC27853, P. aeruginosa; for MIC: agar dilution, 24 h; for MBC: value in parentheses
Experimental: as §1, §2

[4] = test system: Staphylococcus aureus subsp. aureus (ATCC 6538); assay: Agar dilution MIC / MBC; format: cell-based; conditions: Staphylococcus aureus, ATCC6538, S. aureus; for MIC: agar dilution, 24 h; for MBC: value in parentheses, read-out: MBC
Experimental: as §1, §2

[5] = test system: tetracycline, erythromycin, and polymyxin-resistant Proteus mirabilis (Pr2921); assay: Agar dilution MIC / MBC; format: cell-based; conditions: P. mirabilis; for MIC: agar dilution, 24 h; for MBC: value in parentheses
Experimental: as §1, §2

[6] = test system: CCRF-CEM acute lymphoblastic leukemia cells; assay: MTT cell proliferation assay; format: cell-based, human
Experimental: (§3) The HEK293T non-tumor derived cell line and human isolated mononuclear cells (PBMC) were also tested. […] Cells were cultured at 37°C in a 5% CO2 humidified environment.
(§4) To investigate the cytotoxic potential of the isolated compounds, the MTT colorimetric assay was performed. […] The compounds were evaluated at a final maximum concentration of 100 μM. After 72 hours, 20 μL of 5 mg/mL solution of MTT in sterile PBS was added to each well and further incubated for 4 h. Then, the supernatants were removed and replaced with 100 μL DMSO to solubilize the resulting purple formazan crystals produced from metabolically viable cells. Absorbance was measured with an iMark micro-plate reader (Bio-Rad, USA) at 595 nm. Two wells were used for each concentration of the products assayed and three independent experiments were performed. […] The percentage of cytotoxic activity of the assayed compounds was determined by the following formula: cytotoxicity (%) = [1 − (optical density of treated cells − optical density DMSO)/(optical density of ethanol control cells − optical density DMSO)] × 100.
(§5) Data were analyzed by one-way analysis of variance (ANOVA) and means were compared using Bonferroni's comparison test, with p ≤ 0.05 considered as statistically significant.

[7] = test system: K562 chronic myeloid leukemia cells; assay: MTT cell proliferation assay; format: cell-based, human; conditions: Homo sapiens, K562, MTT, 72 h, read-out: IC50 values and 95% confidence limits (lower, upper)
Experimental: as §3, §4, §5

[8] = test system: CEM/ADR5000 cells (MDR, P-glycoprotein overexpressing); assay: cells; format: cell-based, human; conditions: for IC50: Homo sapiens, ADR5000, 72 h, CEM/ADR5000, MTT, 72 h, read-out: IC50 values and 95% confidence limits (lower, upper)
Experimental: as §3
(§6) The latter concentration was then used for maintenance of the cells. Lucena 1 were continuously cultured in the presence of 60 nM DOX. Both cell lines were grown in drug-free medium 3-4 days before the experiments. Overexpression of P-glycoprotein (P-gp) in both MDR variants was verified by flow cytometry using FITC-labeled mouse anti-human P-gp (BD Pharmingen, USA). Cells were subcultured twice a week from frozen stocks and used before the 20th passage. All experiments were performed with cells in the logarithmic growth phase with cell viabilities over 90%, determined by trypan blue staining.
as §4, §5

[9] = test system: Lucena 1 cells (MDR, P-glycoprotein overexpressing); assay: cells; format: cell-based, human; conditions: for IC50: Homo sapiens, Lucena 1, 72 h, Lucena 1, MTT, 72 h, read-out: IC50 values and 95% confidence limits (lower, upper)
Experimental: as §3, §6, §4, §5

bacteria = assay: Antibacterial test of fractions during bioguided isolation; conditions: at 2 mg/mL
Experimental: MICs were determined by the agar dilution test according to CLSI [15] with some modifications [7]. Briefly, the plate count agar medium (PCA, Oxoid Ltd, UK) was added in duplicate to the suitable amount of fraction or pure compound previously dissolved in ethanol. […] After solidification of the agar in 6-well plates (Greiner Bio-One, Germany), 2 μL of each bacterial suspension was placed on the agar surface. Three independent experiments were carried out. […] For reading, visual observations were carried out. Nitro blue tetrazolium (NBT, Sigma-Aldrich CO, USA) solution in saline phosphate buffer (PBS) was applied on one spot for confirmation. Plates containing only the culture medium, with or without the addition of the dissolution solvent, were used as controls. Positive controls with commercial gentamicin sulfate or erythromycin dissolved in sterile water or ethanol, respectively, were simultaneously carried out.
The bactericidal effect was further studied from each concentration of product showing growth inhibition. […] At the end of this period, the minimum bactericidal concentration (MBC) values, defined as the lowest concentration with absence of turbidity, were recorded.

[10] = Homo sapiens; CCRF-CEM; MTT, 72 h; read-out: IC50 values and 95% confidence limits (lower, upper)

Structure (SMILES): O=C(/C=C/c1ccc(O)cc1)c1ccc(O)cc1O [Compound 2, isoliquiritigenin]
MIC [1]: 500 µg/mL (≈ 1950 µM) | MBC [1]: > 500 µg/mL | MIC [2]: > 500 µg/mL | MBC [2]: > 500 µg/mL | MIC [3]: > 500 µg/mL | MBC [3]: > 500 µg/mL | MIC [4]: 250 µg/mL (≈ 976 µM) | MBC [4]: 500 µg/mL (≈ 1950 µM) | MIC [5]: > 500 µg/mL | MBC [5]: > 500 µg/mL | IC50 [6, 10]: 58.1 µM | IC50 [7]: > 100 µM | IC50 [8]: 51.9 µM | IC50 [9]: > 100 µM

Structure (SMILES): O=C1C[C@@H](c2ccccc2)Oc2cc(O)cc(O)c21 [Compound 3, pinocembrin]
MIC [1]: 62 µg/mL (≈ 242 µM) | MBC [1]: 125 µg/mL (≈ 488 µM) | MIC [2]: 500 µg/mL (≈ 1950 µM) | MBC [2]: 500 µg/mL (≈ 1950 µM) | MIC [3]: > 500 µg/mL | MBC [3]: > 500 µg/mL | MIC [4]: 15 µg/mL (≈ 58.5 µM) | MBC [4]: 62 µg/mL (≈ 242 µM) | MIC [5]: > 500 µg/mL | MBC [5]: > 500 µg/mL | IC50 [6, 10]: 58.9 µM | IC50 [7]: > 100 µM | IC50 [8]: 53.5 µM | IC50 [9]: > 100 µM | bactericidal activity (bacteria): bactericidal effects

Structure (SMILES): COc1cc(C2CC(=O)c3ccc(O)cc3O2)ccc1O (stereo not drawn) [Compound 5, 7,4′-dihydroxy-3′-methoxyflavanone]
MIC [1]: 500 µg/mL (≈ 1750 µM) | MBC [1]: > 500 µg/mL | MIC [2]: > 500 µg/mL | MBC [2]: > 500 µg/mL | MIC [3]: > 500 µg/mL | MBC [3]: > 500 µg/mL | MIC [4]: 250 µg/mL (≈ 873 µM) | MBC [4]: > 500 µg/mL | MIC [5]: > 500 µg/mL | MBC [5]: > 500 µg/mL | IC50 [6, 10]: 24.8 µM | IC50 [7]: > 100 µM | IC50 [8]: 30.4 µM | IC50 [9]: > 100 µM

Structure (SMILES): COc1cccc2c1C(=O)c1c(O)c3c(c(O)c1C2=O)C[C@@](O)(C(=O)CO)C[C@@H]3O[C@H]1C[C@H](N)[C@H](O)[C@H](C)O1 [Doxorubicin, Doxorubicin hydrochloride, reference compound]
IC50 ([6]; Homo sapiens, CCRF-CEM, 72 h, CCRF-CEM; MTT, 72 h; read-out: IC50 values and 95% confidence limits (lower, upper)): 0.133 µM | IC50 ([7]; K562, 72 h): 4.1 µM | resistant index (RI) = IC50 resistant cells/IC50 sensitive cells ([8]; CEM/ADR5000 vs CCRF-CEM): ≥ 518.8 | IC50 [8]: > 69 µM | resistant index (RI) = IC50 resistant cells/IC50 sensitive cells [9]: ≥ 16.8 | IC50 [9]: > 69 µM

MIC [1]: 1 µg/mL (≈ 1.36 µM) | MIC [2]: 125 µg/mL (≈ 170 µM) | MIC [3]: 62 µg/mL (≈ 84.5 µM) | MIC [4]: 1 µg/mL (≈ 1.36 µM) | MIC [5]: 500 µg/mL (≈ 681 µM)
Structure (SMILES): CC[C@H]1OC(=O)[C@H](C)[C@@H](O[C@H]2C[C@@](C)(OC)[C@@H](O)[C@H](C)O2)[C@H](C)[C@@H](O[C@@H]2O[C@H](C)C[C@H](N(C)C)[C@H]2O)[C@](C)(O)C[C@@H](C)C(=O)[C@H](C)[C@@H](O)[C@]1(C)O [Erythromycin, erythromycin, reference compound]
MBC [1]: 30 µg/mL (≈ 40.9 µM) | MBC [2]: > 500 µg/mL | MBC [3]: 500 µg/mL (≈ 681 µM) | MBC [4]: 60 µg/mL (≈ 81.8 µM) | MBC [5]: > 500 µg/mL

MIC [1]: 8 µg/mL | MIC [2]: 4 µg/mL | MIC [3]: 4 µg/mL | MIC [4]: 8 µg/mL | MIC [5]: 10 µg/mL
Structure (SMILES): CNC(C)C1CCC(N)C(OC2C(N)CC(N)C(OC3OCC(C)(O)C(NC)C3O)C2O)O1 (stereo not drawn) [Gentamicin, Gentamicin sulfate, reference compound]
MBC [1]: 10 µg/mL | MBC [2]: 8 µg/mL | MBC [3]: 4 µg/mL | MBC [4]: 10 µg/mL | MBC [5]: 10 µg/mL
